Assay results reported in US20100048727A1, “PERFLUOROKETONE COMPOUNDS AND USES THEREOF” (priority 2007, published 2010).
“Also recorded” adds a separate entry of the source.

Assays:
Assay type in all cases: in vivo
EAE-induced SJL/J mice = experiment: Clinical course of EAE in SJL/J mice treated with fluoroketone compounds
[1] = test system: inflammatory cytokines and chemokines in spinal cord; experiment: Mouse Inflammation antibody array on spinal cords of EAE mice; conditions: peak stage (day 18)
Method: Mouse Inflammation antibody array. Spinal cords were removed from vehicle- and FKGK11-treated animals at the peak stage of disease, and were then homogenized and centrifuged at 1000×g. The proteins were extracted and analyzed using the RayBio® Mouse Inflammation Antibody Array 1.1 (Cat. #0106008/AAM-INF-1; RayBiotech Inc.; Norcross, Ga.), which simultaneously detects 40 cytokines and other related proteins. Densitometry analysis was performed to detect differences between the various inflammatory mediators.
To further examine the effects of iPLA2 inhibitor treatment, the expression of 40 inflammatory cytokines and chemokines was assessed using the RayBio® Mouse Inflammation Antibody Array 1.1 (RayBiotech Inc., Norcross, Ga, Cat. #0106008/AAM-INF-1). The analysis was carried out on spinal cords taken from the peak stage of clinical disability (day 18), from mice treated with either a vehicle control, or the iPLA2-specific inhibitor FKGK11.

[2] = test system: spinal cord contusion injury (SCI) mice; experiment: Spinal cord contusion injury in mice: BMS locomotor recovery and histology
Method: Spinal cord contusion and drug administration. All surgical procedures were approved by the McGill University Animal Care Committee and followed the guidelines of the Canadian Council on Animal Care. Adult (8-10 weeks old) female BALB/c (Charles River Canada), cPLA2 IVA^−/− and wild type littermates mice, were anesthetized with ketamine:xylazine:acepromazine (50:5:1 mg/kg). After performing a laminectomy at the 11th thoracic vertebrae, the exposed spinal cord was contused using the Infinite Horizons Impactor™ device (Precision Scientific Instrumentation, Lexington, Ky.). Moderate injuries were made using a force of 50 kDynes, and only animals that had tissue displacement ranged between 400-600 μm were used (Ghasemblou et al. (2005). Exp Neurol. 196(1): 9-17).
PLA2 inhibitor treatment. Mice were given daily intraperitoneal injections of 2 mM fluoroketone (iPLA2 inhibitor; FKGK11) in 200 μl (6.85 mg/kg), starting 1 h after contusion and for 14 days. The control group that also had SCI were treated daily with vehicle.
Functional assessment. Locomotor recovery was evaluated in an open-field test using the Basso Mouse Scale (BMS) (Basso D. M. et al., (2006). J Neurotrauma. 23(5): 635-59). The BMS analysis of hindlimb movements and coordination was carried out by two independent assessors and the consensus score taken. The final score is presented as mean±SEM.
Histology. Mice were perfused with 4% paraformaldehyde in 0.1M phosphate buffer (PB) at 1, 3, 7, 14 and 28 days post-lesion. 5 mm length of the spinal cord containing the lesion site was removed, cryoprotected with 30% sucrose in 0.1M PB, and cut in serial sections (16 μm thick). For double immunoflorescence, sections were incubated with antibodies against iPLA2 VIA (Cayman Chemical) combined with antibodies against Mac-1 (for macrophages/microglia, Serotec), GFAP (for astrocytes, Zymed Labs), CC1 (for oligodendrocytes, Calbiochem), NeuN (for neurons, 1:500, Chemicon) and SMI312 (for axons, Covance). Immunfluorescence labeling for 5-hydroxytryptamine (5-HT) (Sigma, Aldreich) was also performed to assess innervation of serotonergic axons caudal to the lesion. In addition, one series of serial sections of the spinal cord were stained with Luxol fast blue (LFB) histochemistry, which stains myelin, and another series stained with cresyl violet histochemistry to quantify neuronal loss.
Quantification of histological results. Histological quantification was performed from spinal cord sections harvested at 28 days post-lesion. Tissue sections were viewed with an Axioskop™ 2 Plus microscope (Zeiss) and images captured using a Qlmaging Retiga™ 1300 camera, and quantification done using BioQuant™ Nova Prime image analysis system (BioQuant Image Analysis Corp.). Tissue and myelin sparing was calculated by delineating the GFAP and LFB stained sections. Neuronal survival was assessed by counting the neuron profiles in the ventral horn of the spinal cord in tissue sections stained with cresyl violet. Assessment of serotonergic innervation was performed by calculating the area occupied by serotoninergic axons in the lateral funiculi and ventral horns of spinal cord sections taken at a distance of 1000 μm caudal to the lesion site.
Statistical analyses (spinal cord injury experiments, Examples 19-20). Data are shown as mean±s.e.m. RT-PCR and Western blot analyses were done using one-way ANOVA with post-hoc Dunnett's test. Statistical analyses of the functional and histological assessments were performed using two-way repeated measures ANOVA with post-hoc Tukey's test for multiple comparisons. Differences were considered significant at p<0.05.

Question: What does the source list for `O=C(CCCCc1ccccc1)C(F)(F)C(F)(F)F` [FKGK11, 1,1,1,2,2-Pentafluoro-7-phenyl-3-heptanone]?
Answer: clinical disability score between days 22-27 (EAE-induced SJL/J mice; delayed treatment from day 11, 5-point scale): 0.8; maximal clinical disability score (EAE-induced SJL/J mice; delayed treatment from day 11, on day 17, 5-point scale): 1.4; clinical disability score at second peak (EAE-induced SJL/J mice; delayed treatment from day 11, on day 30, 5-point scale): 1.2; severity and progression of the disease (EAE) (EAE-induced SJL/J mice; delayed treatment from day 11 after immunization, 2 weeks, i.p., vs vehicle): marked reduction; maximum clinical disability score (EAE-induced SJL/J mice; treatment before onset of symptoms, daily for 3 weeks from day 6, course until day 40, 5-point scale): 1.0 grade; clinical severity and progression of EAE (EAE-induced SJL/J mice; treatment before onset of symptoms, daily for 3 weeks from day 6, vs vehicle): marked reduction; IL-10 expression [1]: increase; number of chemokine proteins with marked reduction ([1]; of 15 chemokines increased in vehicle-treated control): 11; number of pro-inflammatory cytokines with reduced expression ([1]; of 17 cytokines increased in vehicle-treated control): 13; main BMS scores (locomotor recovery) ([2]; 6.85 mg/kg i.p. daily for 14 days from 1 h after contusion, vs vehicle): did not reach statistical significance; also recorded: No significant differences; BMS subscores (fine locomotor coordination and control) ([2]; 6.85 mg/kg i.p. daily for 14 days, 28 days after SCI, vs vehicle): significant improvement; also recorded: significantly better BMS subscores; sparing of serotonergic fibers in the lateral funiculi ([2]; 1000 μm caudal to the epicenter, 28 days after SCI): significantly greater sparing of serotonergic fibers; increase in serotonergic (5-HT) fibers in the lateral white matter ([2]; 1000 μm caudal to the epicenter, 28 days after SCI, compared to vehicle-treated SCI controls): ~40%; neuronal survival in the ventral horn ([2]; 28 days after SCI, vs vehicle): little if any effect; also recorded: No significant differences; tissue sparing ([2]; epicenter and adjacent areas, 28 days after SCI, vs vehicle): significantly greater tissue sparing; also recorded: greater amount of tissue sparing; myelin sparing (Luxol fast blue) ([2]; regions near the epicenter, 28 days after SCI, vs vehicle): significant enhancement of myelin sparing; also recorded: greater sparing of myelin
